Results as given in patent US10392423B2, “Peptide-based inhibitors of MLL/SET1 family core complexes” (The Research Foundation for the State University of New York, priority 2017, dated 2019).
Several values for one entry are separate records, joined by “and”; a condition that tells them apart may be missing. Equal entries are not always repeated. Where two headings read alike, the source gives them in different places.

Legend:
[1] = target: T1, SET1 family core complex assembly (WDR5, RbBP5, ASH2L) (Homo sapiens, UniProt P61964); experiment: GST pull-down of endogenous WRAD components from MCF-7 cell extracts with or without Win6mer; type: binding; conditions: 10 μM Win6mer
T1 construct: host or cells: MCF-7 cell extract
Procedure: For pull-down assays using cell extracts, a 3 μM concentration of each GST-tagged SET domain was incubated with 100 μg of MCF-7 cell extract for 16 hours at 4° C. Following the initial incubation, 20 μL of a 50:50 slurry of glutathione agarose beads was added to each sample and incubated for an additional 2 hours at 4° C. Samples were washed 3× in radioimmunoprecipitation (RIPA) buffer. Samples were eluted from beads by boiling the samples at 95° C. in SDS-loading buffer for 10 minutes. Samples of the supernatant were separated on a 4-12% Bis-Tris gel and transferred to a PVDF membrane at 30V for 1 hour. PVDF membranes were blocked for 1 hour with a 5% non-fat milk solution then incubated with primary antibody (1:2,000) for 1 hour at room temperature. Blots were washed 4 times then incubated with an HRP-conjugated anti-rabbit secondary antibody (1:5,000) for 1 hour at room temperature. Blots were washed an additional 4 times, then visualized by chemiluminesence (Clarity Western, BioRad) on a BioRad ChemiDoc MP Imager using the chemiluminesence setting.

[2] = tested on: isolated SET1 family SET domains; experiment: Isolated SET domain methyltransferase activity with Win6mer (radiometric, fluorography/LSC); type: biochemical, human; conditions: 100 μM Win6mer; isolated SET domains without WRAD
Procedure: Methyltransferase Assays. MLL core complex Win motif mutants. […] Reactions were quenched with SDS-loading buffer and separated by SDS-PAGE using a 4-12% Bis-Tris gel (Life Technologies) run at 200V for 30 minutes. The gels were enhanced at room temperature for 30 minutes (Enlightning, Perkin Elmer Inc.) then dried for 2.5 hours at 72° C. under constant vacuum. The dried gels were exposed to film (Kodak Biomax MS Film) at −80° C. for 4-24 hours prior to developing. Liquid scintillation counting (LSC) was performed by excising gel bands corresponding to histone H3 peptides, which were dissolved in 750 μL of Solvable (Perkin Elmer Inc.), incubated at room temperature for 30 minutes followed by incubation at 50° C. for 3 hours. The solubilized volume of each sample was transferred to liquid scintillation vials containing 10 mL of Ultima Gold XL liquid scintillation cocktail (Perkin Elmer Inc.). Samples were dark adapted for 1 hour then counted for 5 minutes each with a two-sigma error cut-off using an all-purpose scintillation counter (Beckman Coulter).
MLL SET domains treated with Win6mer. Isolated SET1 family SET domains (5 μM) were incubated with 1 μCi of ^3H-AdoMet (Perkin Elmer Inc.) and 100 μM of H3K4me0, H3K4me1, or H3K4me2 peptides, with and without 100 μM Win6mer, in Assay Buffer at 15° C. for 8 hours. Reactions were quenched with SDS-loading buffer. […]

[3] = target: T2, WDR5 (Homo sapiens, UniProt P61964); experiment: Isothermal titration calorimetry (ITC) binding to WDR5
T2 construct: the experimental cell containing full-length WDR5 (20 μM); His; made in house; host or cells: Escherichia coli Rosetta II (DE3) pLysS
Procedure: Isothermal titration calorimetry (ITC). Purified full-length WDR5 and Win6mer peptide were extensively dialyzed in separate Micro Float-A-Lyzer® Dialysis Devices, MWCO 500-1000 Da (Spectrum Labs) against sample buffer consisting of 20 mM Tris pH 7.5, 300 mM NaCl, 1 mM TCEP, 1 μM ZnCl2 buffer. ITC experiments were carried out at 20° C. using a VP-ITC micro-calorimeter (MicroCal). After an initial delay of 120 sec, Win6mer (200 μM) was titrated into the experimental cell containing full-length WDR5 (20 μM) over the course of 45 injections, 5 μL each. Reference power was set to 10 μCal/sec and stirring speed was set to 295 rpm. Data were integrated using NITPIC. SEDPHAT was used to fit the integrated data to a single-site heterogeneous association model, using simulated annealing and Maxquardt-Levenberg algorithms. Automatic confidence interval search with projection method was applied to estimate the error of the determined thermodynamic parameters. Confidence interval was set to 2σ (95%). ITC figure was generated using GUSSI.

[4] = target: T3, MLL3 core complex (Homo sapiens, UniProt P61964); experiment: Core complex methyltransferase inhibition, scintillation proximity assay; type: biochemical; conditions: H3K4me0 substrate
T3 construct: Full-length WRAD constructs in pHis parallel expression vectors; His; made in house; host or cells: Escherichia coli Rosetta II (DE3) pLysS
Procedure: (§1) MLL Core Complex inhibition by Win6mer. Assay conditions: MLL core complexes were reconstituted by mixing purified GST-SET domains (MLL1, MLL4, MLL2, MLL3, SETd1A, and SETd1B) with WDR5, RbBP5, ASH2L, and DPY-30 in stoichiometric amounts (GST-SET:W:R:A:D 1:1:1:1:2). The activity of each core complex was assessed under the following conditions: 2 μM SET1 core complex, 80 μM biotinylated H3 substrate peptide, 0.68 μM ^3H-AdoMet (0.5 μCi) at 15° C. in Assay Buffer (50 mM Tris pH 8.5, 200 mM NaCl, 5 mM MgCl2, 5% glycerol), in a total volume of 10 μL. Core complex- or H3 peptide-only reactions incubated with ^3H-AdoMet served as background controls. Reactions were quenched with 167 mM EDTA (ethylenediaminetetraacetic acid). Each sample was diluted in 50 μL Buffer 2 containing 0.2 mg/mL BSA and then transferred to 96-well streptavidin-coated FlashPlate® Microplates (Perkin Elmer). Samples were incubated overnight at 4° C. to allow binding of the biotinylated H3 peptide to the streptavidin-coated surface prior to scintillation counting in Hidex Sense microplate reader (LabLogic). Determination of linear ranges: The activity of MLL core complexes towards H3K4me0, H3K4me1, or H3K4me2 substrate peptides was assayed as described above. Reactions were quenched at varying time points with 167 mM EDTA and prepared for scintillation counting on Streptavidin FlashPlates®. A plot of counts per minute (CPM) vs. time was constructed from which the linear range was determined. Single time points within the linear range were selected for each SET1 core complex for performing inhibition studies: H3K4me0: MLL1, MLL2*, SETd1A, and SETd1B*—5 min, MLL4—3 min, MLL3—15 min. H3K4me1: MLL1—5 min, MLL4—3 min, SETd1A—15 min, SETd1B—45 min. H3K4me2: SETd1A—2 hr, SETd1B—1 hr. (*1 μM of MLL2 and SETd1B core complex were used for H3K4me0 reactions). Dose response curves: Inhibition studies were performed in order to determine the efficiency of Win6mer as an MLL core complex inhibitor. The activity of each MLL core complex towards H3 substrate peptides was assessed (as described above) with increasing doses of Win6mer (0, 0.005, 0.05, 0.10, 0.5, 1.0, 2.5, 5.0, 10.0, and 50 μM). Reactions were quenched with 167 mM EDTA at the determined time points and prepared for scintillation counting on streptavidin-coated FlashPlastes® as described above.
(§2) The activity of SET1 core complexes at each Win6mer concentration point was normalized to the activity of the uninhibited core complex to obtain the relative methyltransferase activity. Inhibition data were plotted as relative methyltransferase activity vs. log [Win6mer] (nM). The Win6mer IC50 values for MLL1 and SETd1A core complexes were determined by fitting the data to a dose response with variable slope equation in Sigma Plot.

[5] = target: T4, MLL1 core complex (Homo sapiens, UniProt P61964); experiment: as above; type: biochemical
T4 construct: Full-length WRAD constructs in pHis parallel expression vectors; His; made in house; host or cells: Escherichia coli Rosetta II (DE3) pLysS
Procedure: as §1, §2

[6] = target: T5, MLL2 core complex (Homo sapiens, UniProt P61964); experiment: as above; type: biochemical; conditions: H3K4me0 substrate
T5 construct: Full-length WRAD constructs in pHis parallel expression vectors; His; made in house; host or cells: Escherichia coli Rosetta II (DE3) pLysS
Procedure: as §1, §2

[7] = target: T6, MLL4 core complex (Homo sapiens, UniProt P61964); experiment: as above; type: biochemical; conditions: for IC50: 2 μM core complex, Win6mer up to 50 μM, read-out: Inhibition Efficiency, IC50
T6 construct: Full-length WRAD constructs in pHis parallel expression vectors; His; made in house; host or cells: Escherichia coli Rosetta II (DE3) pLysS
Procedure: as §1, §2

[8] = target: T7, SETd1B core complex (Homo sapiens, UniProt P61964); experiment: as above; type: biochemical; conditions: for IC50: Win6mer up to 50 μM, read-out: Inhibition Efficiency, IC50
T7 construct: Full-length WRAD constructs in pHis parallel expression vectors; His; made in house; host or cells: Escherichia coli Rosetta II (DE3) pLysS
Procedure: as §1, §2

[9] = target: T2, WDR5; conditions: ITC; reported values of other inhibitors; read-out: Dissociation Constant Kd towards WDR5; cited from earlier work

## CC(=O)N[C@@H](C)C(=O)N[C@@H](CCCNC(=N)N)C(=O)N[C@H](C(=O)N[C@@H](CCC(=O)O)C(=O)N[C@H](C(=O)N[C@@H](Cc1ccc(O)cc1)C(N)=O)C(C)C)[C@@H](C)O [Win6mer, Ac-ARTEVY-NH2]
[1]
  RbBP5/ASH2L binding of MLL2, MLL3, MLL4 and SETd1B: only a modest reduction
  RbBP5/ASH2L interaction with MLL1 and SETd1A complexes: near total loss
  ability of all six SET1 family members to interact with endogenous WDR5: greatly reduced
[2]
  effect on intrinsic monomethyltransferase activity of SET1 family members: did not affect
[3]
  increase in binding affinity over the best naturally occurring Win motif sequence: ~18 fold
[3]; read-out: Dissociation Constant Kd towards WDR5
  Kd: ~0.003 µM and 0.0029 µM
[4]
  methyltransferase activity of core complex on treatment: uninhibited
[4]; 2 μM core complex, Win6mer up to 50 μM, read-out: Inhibition Efficiency, IC50
  IC50: > 50 µM
[5]; 1.8 μM of enzyme complex assayed, read-out: IC50
  IC50: 2.2 µM
[5]; 2 μM of enzyme complex assayed, read-out: average IC50
  IC50: 2.2 µM
[5]; H3K4me1 substrate, 2 μM core complex, read-out: Inhibition Efficiency, IC50 [95% confidence interval]
  IC50: 2.2 µM
[6]
  methyltransferase activity of core complex on treatment: uninhibited
[6]; 1 μM core complex, Win6mer up to 50 μM, read-out: Inhibition Efficiency, IC50
  IC50: > 50 µM
[7]; H3K4me0 substrate
  methyltransferase activity of core complex on treatment: uninhibited
  IC50: > 50 µM
[7]; H3K4me1 substrate
  IC50: > 50 µM
[8]; H3K4me0 substrate
  methyltransferase activity of core complex on treatment: uninhibited
[8]; H3K4me0 substrate, 1 μM core complex
  IC50: > 50 µM
[8]; H3K4me1 substrate, 2 μM core complex
  IC50: > 50 µM
[8]; H3K4me2 substrate, 2 μM core complex
  IC50: > 50 µM

## COC(=O)c1ccc(N2CCN(C)CC2)c(NC(=O)c2cccc(OC)c2)c1 [WDR5-0103]
[9]
  Kd: 0.45 µM
